# Data reported in patent US11590116B2 (THERAVANCE BIOPHARMA R&D IP, LLC, priority 2019, dated 2023).
# Legend:
# [1] = target: T1, recombinant human ALK5 (TGF-βR1) protein (Homo sapiens, UniProt P36897); assay: Biochemical ALK5 (TGF-βR1) assay to measure pKi (LANCE Ultra ULight kinase assay); conditions: apparent pKi from pIC50 by Cheng-Prusoff, read-out: ALK5 pKi (converted)
# T1 construct: purchased Life Technologies PR9075A
# T1 sequence (P36897 34-503): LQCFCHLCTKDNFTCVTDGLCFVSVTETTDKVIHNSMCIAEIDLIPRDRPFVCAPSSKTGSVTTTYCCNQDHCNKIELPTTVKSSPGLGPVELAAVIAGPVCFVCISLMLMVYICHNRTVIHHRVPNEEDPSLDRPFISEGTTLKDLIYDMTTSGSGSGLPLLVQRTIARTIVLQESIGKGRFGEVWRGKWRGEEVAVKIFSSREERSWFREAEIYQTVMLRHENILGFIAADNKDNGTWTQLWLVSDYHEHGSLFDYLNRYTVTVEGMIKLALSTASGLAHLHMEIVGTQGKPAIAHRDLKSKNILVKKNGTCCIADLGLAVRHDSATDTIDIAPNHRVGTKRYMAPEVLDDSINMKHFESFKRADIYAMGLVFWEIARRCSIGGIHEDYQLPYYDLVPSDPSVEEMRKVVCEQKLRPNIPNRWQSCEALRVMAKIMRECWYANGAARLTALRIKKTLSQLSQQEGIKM
# Method in brief: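 Compounds (10 μM to 25 pM) preincubated 60 minutes at room temperature with enzyme, then reaction run 60 minutes at 37° C with ATP added as 125 μM (5× final). Stopped with EDTA plus Eu-anti-phospho-Topoisomerase 2-alpha (Thr1342) antibody, TR-FRET read at 665 nm; pIC50 converted to pKi via Cheng-Prusoff.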
# [2] = tested on: TGF-β-stimulated SMAD3 phosphorylation in BEAS-2B cells; assay: Cellular ALK5 potency assay, inhibition of TGF-β stimulated pSMAD3 formation in BEAS-2B cells; format: cell-based; conditions: Homo sapiens; inhibition of TGF-β stimulated pSMAD3 formation, BEAS-2B cells; read-out: BEAS2B pIC50 (converted)
# Method in brief: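 Cells seeded overnight; rinse with supplemented HBSS; compound 1 h at 37 °C; TGF-β 10 ng/mL final, 30 min; lyse; AlphaLISA acceptor and detector beads 2 h apart, read next day. Potency expressed as pIC50.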
Compound,Ki [1] [nM],IC50 [2] [nM]
"Cc1cccc(-c2n[nH]cc2-c2ccc3ncc(-c4nc(CO)co4)cc3n2)n1 [Compound 32, [2-[6-[3-(6-methyl-2-pyridyl)-1H-pyrazol-4-yl]-1,5-naphthyridin-3-yl]oxazol-4-yl]methanol]",< 0.0316,25.1 to 158
"COc1[nH]nc(-c2cccc(C)n2)c1-c1ccc2ncc(N3CCNCC3)cc2n1 [Compound 33, 2-(5-methoxy-3-(6-methylpyridin-2-yl)-1H-pyrazol-4-yl)-7-(piperazin-1-yl)-1,5-naphthyridine]",0.0398 to 0.316,25.1 to 158
"Cc1nc(-c2n[nH]cc2-c2ccc3ncc(-c4ccc5c(n4)CCNC5)cc3n2)ccc1F [Compound 34, 2-[3-(5-fluoro-6-methyl-2-pyridyl)-1H-pyrazol-4-yl]-7-(5,6,7,8-tetrahydro-1,6-naphthyridin-2-yl)-1,5-naphthyridine]",< 0.0316,25.1 to 158
"Cc1cccc(-c2n[nH]cc2-c2ccc3ncc(-c4cn(Cc5cccnc5)nn4)cc3n2)n1 [Compound 35, 2-[3-(6-methyl-2-pyridyl)-1H-pyrazol-4-yl]-7-[1-(3-pyridylmethyl)triazol-4-yl]-1,5-naphthyridine]",0.0398 to 0.316,< 20
"Cc1nc(-c2n[nH]cc2-c2ccc3ncc(-c4ncc5n4CCNC5)cc3n2)ccc1F [Compound 39, 2-[3-(5-fluoro-6-methyl-2-pyridyl)-1H-pyrazol-4-yl]-7-(5,6,7,8-tetrahydroimidazo[1,5-a]pyrazin-3-yl)-1,5-naphthyridine]",0.398 to 3.16,200 to 1260
"Cc1cccc(-c2n[nH]cc2-c2ccc3ncc(-c4nnc5n4CCNC5)cc3n2)n1 [Compound 40, 2-[3-(6-methyl-2-pyridyl)-1H-pyrazol-4-yl]-7-(5,6,7,8-tetrahydro-[1,2,4]triazolo[4,3-a]pyrazin-3-yl)-1,5-naphthyridine]",3.98 to 31.6,1580 to 10000
"COc1[nH]nc(-c2cccc(C)n2)c1-c1ccc2ncc(Br)cc2n1 [Compound 42, 7-bromo-2-(5-methoxy-3-(6-methylpyridin-2-yl)-1H-pyrazol-4-yl)-1,5-naphthyridine]",0.0398 to 0.316,25.1 to 158
"Cc1cccc(-c2n[nH]cc2-c2ccc3ncc(C(=O)NCCN4CCOCC4)cc3n2)n1 [Compound 44, 6-[3-(6-methyl-2-pyridyl)-1H-pyrazol-4-yl]-N-(2-morpholinoethyl)-1,5-naphthyridine-3-carboxamide]",< 0.0316,25.1 to 158
"CNC1CCN(c2cnc3ccc(-c4c[nH]nc4-c4cccc(C)n4)nc3c2)CC1 [Compound 45, N-methyl-1-[6-[3-(6-methyl-2-pyridyl)-1H-pyrazol-4-yl]-1,5-naphthyridin-3-yl]piperidin-4-amine]",< 0.0316,25.1 to 158
"Cc1nc(-c2nc3ccccn3c2-c2ccc3ncc(N4CCC(N5CCN(C)CC5)CC4)cc3n2)ccc1F [Compound 47, 2-[2-(5-fluoro-6-methyl-2-pyridyl)imidazo[1,2-a]pyridin-3-yl]-7-[4-(4-methylpiperazin-1-yl)-1-piperidyl]-1,5-naphthyridine]",0.0398 to 0.316,200 to 1260
"Cc1cccc(-c2n[nH]cc2-c2ccc3ncc(-c4cn(Cc5ccccc5)nn4)cc3n2)n1 [Compound 48, 7-(l-benzyltriazol-4-yl)-2-[3-(6-methyl-2-pyridyl)-1H-pyrazol-4-yl]-1,5-naphthyridine]",0.0398 to 0.316,< 20
"Cc1nc(-c2n[nH]cc2-c2ccc3ncc(-c4nc(C(F)(F)F)n5c4CNCC5)cc3n2)ccc1F [Compound 51, 2-[3-(5-fluoro-6-methyl-2-pyridyl)-1H-pyrazol-4-yl]-7-[3-(trifluoromethyl)-5,6,7,8-tetrahydroimidazo[1,5-a]pyrazin-1-yl]-1,5-naphthyridine]",0.0398 to 0.316,25.1 to 158
"Cc1cccc(-c2n[nH]cc2-c2ccc3ncc(N4CCC[C@H]4CO)cc3n2)n1 [Compound 52, [(2S)-1-[6-[3-(6-methyl-2-pyridyl)-1H-pyrazol-4-yl]-1,5-naphthyridin-3-yl]pyrrolidin-2-yl]methanol]",0.0398 to 0.316,25.1 to 158
"COC(=O)c1cnc2ccc(-c3cn[nH]c3-c3cccc(C)n3)nc2c1 [Compound 53, methyl 6-[5-(6-methyl-2-pyridyl)-1H-pyrazol-4-yl]-1,5-naphthyridine-3-carboxylate]",0.0398 to 0.316,25.1 to 158
"Cc1cccc(-c2n[nH]cc2-c2ccc3ncc(C(=O)NCCCN4CCN(C(C)C)CC4)cc3n2)n1 [Compound 55, N-[3-(4-isopropylpiperazin-1-yl)propyl]-6-[3-(6-methyl-2-pyridyl)-1H-pyrazol-4-yl]-1,5-naphthyridine-3-carboxamide]",0.0398 to 0.316,200 to 1260
"Cc1ccc(S(=O)(=O)NCC(=O)Nc2cnc3ccc(-c4c[nH]nc4-c4cccc(C)n4)nc3c2)cc1 [Compound 57, N-[6-[3-(6-methyl-2-pyridyl)-1H-pyrazol-4-yl]-1,5-naphthyridin-3-yl]-2-(p-tolylsulfonylamino)acetamide]",0.0398 to 0.316,25.1 to 158

# Further lines, with some results ahead:
Ki [1] [nM],Compound,IC50 [2] [nM]
0.0398 to 0.316,"Cc1cccc(-c2[nH]cnc2-c2ccc3ncc(NCCN4CCCC4)cc3c2)n1 [Compound 30, 6-[5-(6-methyl-2-pyridyl)-1H-imidazol-4-yl]-N-(2-pyrrolidin-1-ylethyl)quinolin-3-amine]",25.1 to 158
< 0.0316,"Cc1cccc(-c2n[nH]cc2-c2ccc3ncc(NCCN4CCCC4(C)C)cc3n2)n1 [Compound 31, N-[2-(2,2-dimethylpyrrolidin-1-yl)ethyl]-6-[3-(6-methyl-2-pyridyl)-1H-pyrazol-4-yl]-1,5-naphthyridin-3-amine]",25.1 to 158
0.0398 to 0.316,"Cc1cccc(-c2[nH]cnc2-c2ccc3ncc(C4=CCC(C(=O)OCC5CNC5)CC4)cc3c2)n1 (centres unmarked) [Compound 36, azetidin-3-ylmethyl 4-[6-[5-(6-methyl-2-pyridyl)-1H-imidazol-4-yl]-3-quinolyl]cyclohex-3-ene-1-carboxylate]",25.1 to 158
0.0398 to 0.316,"COC[C@H]1CN(CCNc2cnc3ccc(-c4nc[nH]c4-c4cccc(C)n4)cc3c2)CCN1 [Compound 37, N-[2-[(3R)-3-(methoxymethyl)piperazin-1-yl]ethyl]-6-[5-(6-methyl-2-pyridyl)-1H-imidazol-4-yl]quinolin-3-amine]",25.1 to 158
0.398 to 3.16,"Cc1cccc(-c2c(-c3ccc4ncc(N5CCC(N(C)C)C5)cc4c3)nnn2Cc2ccccc2)n1 (centres unmarked) [Compound 38, 1-[6-[1-benzyl-5-(6-methyl-2-pyridyl)triazol-4-yl]-3-quinolyl]-N,N-dimethyl-pyrrolidin-3-amine]",1580 to 10000
0.0398 to 0.316,"Cc1cccc(-c2[nH]cnc2-c2ccc3ncc(N4CCC(C(=O)O[C@@H]5CCNC5)CC4)cc3c2)n1 [Compound 41, [(3R)-pyrrolidin-3-yl] 1-[6-[5-(6-methyl-2-pyridyl)-1H-imidazol-4-yl]-3-quinolyl]piperidine-4-carboxylate]",25.1 to 158
0.0398 to 0.316,"Cc1nc(-c2n[nH]cc2-c2ccc3ncc(NCCN4CCN(C(C)C)CC4)cc3n2)ccc1F [Compound 43, 6-[3-(5-fluoro-6-methyl-2-pyridyl)-1H-pyrazol-4-yl]-N-[2-(4-isopropylpiperazin-1-yl)ethyl]-1,5-naphthyridin-3-amine]",25.1 to 158
0.398 to 3.16,"Cc1cccc(-c2[nH]nnc2-c2ccc3ncc(NCCN4CCN(C(C)C)CC4)cc3n2)n1 [Compound 46, N-[2-(4-isopropylpiperazin-1-yl)ethyl]-6-[5-(6-methyl-2-pyridyl)-1H-triazol-4-yl]-1,5-naphthyridin-3-amine]",200 to 1260
0.0398 to 0.316,"Cc1cccc(-c2[nH]cnc2-c2ccc3ncc(C4=CCC(C(=O)O[C@@H]5CCNC5)CC4)cc3c2)n1 (stereo partly drawn) [Compound 49, [(3R)-pyrrolidin-3-yl] 4-[6-[5-(6-methyl-2-pyridyl)-1H-imidazol-4-yl]-3-quinolyl]cyclohex-3-ene-1-carboxylate]",25.1 to 158
0.0398 to 0.316,"Cc1cccc(-c2[nH]cnc2-c2ccc3ncc(NC4CNC4)cc3c2)n1 [Compound 50, N-(azetidin-3-yl)-6-[5-(6-methyl-2-pyridyl)-1H-imidazol-4-yl]quinolin-3-amine]",25.1 to 158
0.0398 to 0.316,"Cc1cccc(-c2[nH]cnc2-c2ccc3ncc(-c4ccc(C(=O)OCC5CNC5)nc4)cc3c2)n1 [Compound 54, azetidin-3-ylmethyl 5-[6-[5-(6-methyl-2-pyridyl)-1H-imidazol-4-yl]-3-quinolyl]pyridine-2-carboxylate]",200 to 1260
< 0.0316,"Cc1cccc(-c2[nH]cnc2-c2ccc3ncc(NCCN4CCCC4(C)C)cc3c2)n1 [Compound 56, N-[2-(2,2-dimethylpyrrolidin-1-yl)ethyl]-6-[5-(6-methyl-2-pyridyl)-1H-imidazol-4-yl]quinolin-3-amine]",25.1 to 158
